Assay results from the kinase profiling compilation of Christmann-Franck et al. (2016).

Experiments:
Assay in all cases: radiometric filter-binding kinase assay
[1] = test system: AKT2 (human), P31751 [S474D]
CAMKK2 (human) = CAMKK2 (human) (UniProt Q96RR4)
CHEK1 (human) = CHEK1 (human) (UniProt O14757)
CLK2 (human) = CLK2 (human) (UniProt P49760)
CSNK1D (human) = CSNK1D (human) (UniProt P48730)
DYRK1A (human) = DYRK1A (human) (UniProt Q13627)
EPHA4 (human) = EPHA4 (human) (UniProt P54764)
HIPK3 (human) = HIPK3 (human) (UniProt Q9H422)
Sequence of HIPK3 (human) (Q9H422 whole entry, looked up): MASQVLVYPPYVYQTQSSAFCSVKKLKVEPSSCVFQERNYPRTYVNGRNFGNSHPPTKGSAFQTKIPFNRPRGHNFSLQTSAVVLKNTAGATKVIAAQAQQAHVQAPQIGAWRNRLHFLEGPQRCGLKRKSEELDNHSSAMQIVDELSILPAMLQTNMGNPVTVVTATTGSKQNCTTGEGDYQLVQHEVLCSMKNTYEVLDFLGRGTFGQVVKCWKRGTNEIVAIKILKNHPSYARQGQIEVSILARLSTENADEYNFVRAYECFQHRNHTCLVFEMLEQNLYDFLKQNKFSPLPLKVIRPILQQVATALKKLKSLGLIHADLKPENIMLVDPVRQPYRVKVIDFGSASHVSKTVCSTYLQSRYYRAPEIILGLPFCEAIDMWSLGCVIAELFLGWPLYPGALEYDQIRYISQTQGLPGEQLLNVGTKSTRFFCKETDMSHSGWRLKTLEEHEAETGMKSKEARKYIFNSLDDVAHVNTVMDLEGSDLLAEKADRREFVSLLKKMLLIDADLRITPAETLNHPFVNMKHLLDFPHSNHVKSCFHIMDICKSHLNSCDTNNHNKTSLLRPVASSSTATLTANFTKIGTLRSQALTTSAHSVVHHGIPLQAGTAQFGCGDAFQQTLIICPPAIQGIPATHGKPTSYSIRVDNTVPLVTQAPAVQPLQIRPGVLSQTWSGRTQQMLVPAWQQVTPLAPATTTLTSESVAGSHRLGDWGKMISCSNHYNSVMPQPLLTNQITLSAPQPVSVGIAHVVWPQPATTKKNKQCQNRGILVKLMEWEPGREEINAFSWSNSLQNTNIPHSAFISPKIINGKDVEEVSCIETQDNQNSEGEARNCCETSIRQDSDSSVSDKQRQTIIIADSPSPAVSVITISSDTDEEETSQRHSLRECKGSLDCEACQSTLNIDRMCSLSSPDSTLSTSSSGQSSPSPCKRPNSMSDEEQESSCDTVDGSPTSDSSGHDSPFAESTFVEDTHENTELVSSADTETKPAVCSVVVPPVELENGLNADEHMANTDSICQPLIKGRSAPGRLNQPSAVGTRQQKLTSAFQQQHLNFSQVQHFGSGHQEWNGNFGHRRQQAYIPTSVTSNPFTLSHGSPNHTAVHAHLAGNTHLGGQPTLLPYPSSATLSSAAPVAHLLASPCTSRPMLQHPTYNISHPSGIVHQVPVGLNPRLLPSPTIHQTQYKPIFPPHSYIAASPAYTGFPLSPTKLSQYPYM

IGF1R (human) = IGF1R (human) (UniProt P08069)
IKBKE (human) = IKBKE (human) (UniProt Q14164)
Sequence of IKBKE (human) (Q14164 whole entry, looked up): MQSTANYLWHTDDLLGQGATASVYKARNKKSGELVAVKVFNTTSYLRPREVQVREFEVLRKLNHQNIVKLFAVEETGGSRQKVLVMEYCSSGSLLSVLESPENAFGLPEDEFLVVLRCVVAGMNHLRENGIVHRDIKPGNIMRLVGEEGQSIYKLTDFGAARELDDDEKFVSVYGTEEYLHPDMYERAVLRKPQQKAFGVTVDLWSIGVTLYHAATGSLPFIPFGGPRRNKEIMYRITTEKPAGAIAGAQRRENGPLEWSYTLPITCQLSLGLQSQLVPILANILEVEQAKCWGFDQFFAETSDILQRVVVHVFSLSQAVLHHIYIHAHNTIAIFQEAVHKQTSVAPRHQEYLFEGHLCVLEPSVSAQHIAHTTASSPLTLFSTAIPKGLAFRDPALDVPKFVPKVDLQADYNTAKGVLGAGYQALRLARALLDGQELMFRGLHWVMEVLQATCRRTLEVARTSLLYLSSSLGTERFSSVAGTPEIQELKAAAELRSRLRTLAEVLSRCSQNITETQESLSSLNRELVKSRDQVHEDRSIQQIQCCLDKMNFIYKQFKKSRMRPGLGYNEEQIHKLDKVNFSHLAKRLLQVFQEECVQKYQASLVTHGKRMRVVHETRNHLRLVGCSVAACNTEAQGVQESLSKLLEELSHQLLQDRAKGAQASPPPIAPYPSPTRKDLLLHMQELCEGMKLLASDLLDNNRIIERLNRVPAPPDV

IRAK4 (human) = IRAK4 (human) (UniProt Q9NWZ3)
MAP3K7 TAB1 (human) = MAP3K7 TAB1 (human) (UniProt Q15750+O43318)
MAPK12 (human) = MAPK12 (human) (UniProt P53778)
Sequence of MAPK12 (human) (P53778 whole entry, looked up): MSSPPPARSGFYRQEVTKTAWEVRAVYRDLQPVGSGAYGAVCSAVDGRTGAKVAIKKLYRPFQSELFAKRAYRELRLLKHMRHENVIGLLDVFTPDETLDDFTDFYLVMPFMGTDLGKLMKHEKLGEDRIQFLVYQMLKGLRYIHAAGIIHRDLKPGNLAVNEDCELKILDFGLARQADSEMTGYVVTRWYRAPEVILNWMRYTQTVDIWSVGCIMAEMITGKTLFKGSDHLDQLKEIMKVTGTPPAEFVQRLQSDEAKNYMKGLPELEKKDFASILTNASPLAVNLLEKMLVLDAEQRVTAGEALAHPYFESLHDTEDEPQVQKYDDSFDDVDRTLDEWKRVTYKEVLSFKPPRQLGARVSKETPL

MAPK14 (human) = MAPK14 (human) (UniProt Q16539)
Sequence of MAPK14 (human) (Q16539 whole entry, looked up): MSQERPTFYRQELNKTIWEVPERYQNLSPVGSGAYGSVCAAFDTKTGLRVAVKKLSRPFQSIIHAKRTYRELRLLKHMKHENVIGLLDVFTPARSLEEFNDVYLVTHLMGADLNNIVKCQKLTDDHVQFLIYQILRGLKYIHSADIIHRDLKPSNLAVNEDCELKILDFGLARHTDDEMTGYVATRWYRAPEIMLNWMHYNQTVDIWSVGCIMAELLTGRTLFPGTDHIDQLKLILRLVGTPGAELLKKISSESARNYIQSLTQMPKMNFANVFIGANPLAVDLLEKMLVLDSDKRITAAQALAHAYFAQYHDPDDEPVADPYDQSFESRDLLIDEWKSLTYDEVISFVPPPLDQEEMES

MAPK15 (human) = MAPK15 (human) (UniProt Q8TD08)
Sequence of MAPK15 (human) (Q8TD08 whole entry, looked up): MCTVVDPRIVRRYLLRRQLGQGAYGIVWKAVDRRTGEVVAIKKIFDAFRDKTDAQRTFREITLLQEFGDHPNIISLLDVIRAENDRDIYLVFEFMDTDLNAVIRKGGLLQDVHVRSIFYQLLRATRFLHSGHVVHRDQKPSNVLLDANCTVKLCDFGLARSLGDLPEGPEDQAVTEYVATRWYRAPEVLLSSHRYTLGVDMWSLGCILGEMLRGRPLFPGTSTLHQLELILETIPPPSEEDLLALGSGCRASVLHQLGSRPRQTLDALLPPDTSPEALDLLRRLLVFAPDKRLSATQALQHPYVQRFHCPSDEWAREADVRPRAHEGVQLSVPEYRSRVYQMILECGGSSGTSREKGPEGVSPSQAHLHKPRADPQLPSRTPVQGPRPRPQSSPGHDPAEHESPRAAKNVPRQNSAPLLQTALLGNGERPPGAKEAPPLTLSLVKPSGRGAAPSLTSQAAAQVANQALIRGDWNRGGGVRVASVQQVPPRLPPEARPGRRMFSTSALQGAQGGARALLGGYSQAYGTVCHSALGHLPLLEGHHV

MAPK3 (human) = MAPK3 (human) (UniProt P27361)
Sequence of MAPK3 (human) (P27361 whole entry, looked up): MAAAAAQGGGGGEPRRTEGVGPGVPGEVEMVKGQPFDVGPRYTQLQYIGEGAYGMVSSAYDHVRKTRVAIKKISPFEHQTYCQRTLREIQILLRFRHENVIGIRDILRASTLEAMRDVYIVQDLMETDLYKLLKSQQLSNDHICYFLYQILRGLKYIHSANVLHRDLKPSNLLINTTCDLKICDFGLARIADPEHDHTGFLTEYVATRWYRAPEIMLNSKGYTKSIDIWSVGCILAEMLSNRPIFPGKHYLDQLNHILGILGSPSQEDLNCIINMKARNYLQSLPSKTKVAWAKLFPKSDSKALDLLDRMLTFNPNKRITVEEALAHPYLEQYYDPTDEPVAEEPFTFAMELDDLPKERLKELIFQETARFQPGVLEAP

MAPKAPK2 (human) = MAPKAPK2 (human) (UniProt P49137)
Sequence of MAPKAPK2 (human) (P49137 whole entry, looked up): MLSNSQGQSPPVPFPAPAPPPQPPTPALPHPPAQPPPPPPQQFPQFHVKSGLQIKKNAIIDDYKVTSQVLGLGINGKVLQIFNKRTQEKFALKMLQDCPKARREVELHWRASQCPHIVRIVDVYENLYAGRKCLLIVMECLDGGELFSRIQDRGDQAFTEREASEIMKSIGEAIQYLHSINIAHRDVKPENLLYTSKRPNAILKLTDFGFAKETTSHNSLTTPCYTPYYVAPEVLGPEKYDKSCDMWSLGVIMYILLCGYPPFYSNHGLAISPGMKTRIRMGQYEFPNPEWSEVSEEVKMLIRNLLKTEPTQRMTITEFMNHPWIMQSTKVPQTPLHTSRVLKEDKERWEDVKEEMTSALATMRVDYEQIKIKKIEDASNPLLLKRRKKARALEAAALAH

MARK1 (human) = MARK1 (human) (UniProt Q9P0L2)

Sequence of CSNK1D (human) (P48730 whole entry, looked up): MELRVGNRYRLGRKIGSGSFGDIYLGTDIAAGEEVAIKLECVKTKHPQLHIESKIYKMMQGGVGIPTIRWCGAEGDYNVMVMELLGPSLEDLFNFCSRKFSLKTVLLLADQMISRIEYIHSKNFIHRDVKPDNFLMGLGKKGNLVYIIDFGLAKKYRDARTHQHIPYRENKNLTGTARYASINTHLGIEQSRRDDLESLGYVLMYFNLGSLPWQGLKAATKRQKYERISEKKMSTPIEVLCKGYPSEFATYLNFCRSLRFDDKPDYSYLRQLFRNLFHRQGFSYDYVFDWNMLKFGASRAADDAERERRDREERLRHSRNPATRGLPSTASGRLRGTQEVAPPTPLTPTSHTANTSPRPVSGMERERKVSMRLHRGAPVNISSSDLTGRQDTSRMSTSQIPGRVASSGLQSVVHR
Sequence of CHEK1 (human) (O14757 whole entry, looked up): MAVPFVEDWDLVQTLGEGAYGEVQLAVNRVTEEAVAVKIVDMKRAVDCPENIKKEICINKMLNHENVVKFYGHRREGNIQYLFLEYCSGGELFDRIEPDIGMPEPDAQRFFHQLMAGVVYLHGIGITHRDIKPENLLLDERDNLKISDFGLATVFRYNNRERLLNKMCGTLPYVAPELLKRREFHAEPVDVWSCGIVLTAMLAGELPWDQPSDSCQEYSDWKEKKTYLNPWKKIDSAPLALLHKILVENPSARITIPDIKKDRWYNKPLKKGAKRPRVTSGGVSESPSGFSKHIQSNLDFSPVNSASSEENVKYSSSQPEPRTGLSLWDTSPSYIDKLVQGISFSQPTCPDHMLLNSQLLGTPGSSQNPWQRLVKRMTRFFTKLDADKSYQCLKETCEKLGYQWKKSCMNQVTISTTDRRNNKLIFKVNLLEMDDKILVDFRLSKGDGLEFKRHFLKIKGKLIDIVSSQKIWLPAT

N#Cc1c(O)c2c(-c3ccc(-c4ccccc4O)cc3)csc2[nH]c1=O
residual activity ([1]; compound 10.0 µM): 56% | residual activity ([1]; compound 50.0 µM): 37% | residual activity ([1]; compound 100.0 µM): 11% | residual activity (CAMKK2 (human); compound 10.0 µM): 87% | residual activity (CAMKK2 (human); compound 50.0 µM): 48% | residual activity (CAMKK2 (human); compound 100.0 µM): 78% | residual activity (CHEK1 (human); compound 10.0 µM): 69% | residual activity (CHEK1 (human); compound 50.0 µM): 98% | residual activity (CHEK1 (human); compound 100.0 µM): 43% | residual activity (CLK2 (human); compound 10.0 µM): 81% | residual activity (CLK2 (human); compound 100.0 µM): 30% | residual activity (CSNK1D (human); compound 10.0 µM): 88% | residual activity (CSNK1D (human); compound 50.0 µM): 60% | residual activity (CSNK1D (human); compound 100.0 µM): 88% | residual activity (DYRK1A (human); compound 10.0 µM): 75% | residual activity (DYRK1A (human); compound 50.0 µM): 60% | residual activity (DYRK1A (human); compound 100.0 µM): 26% | residual activity (EPHA4 (human); compound 10.0 µM): 93% | residual activity (EPHA4 (human); compound 100.0 µM): 64% | residual activity (HIPK3 (human); compound 10.0 µM): 97% | residual activity (HIPK3 (human); compound 50.0 µM): 52% | residual activity (HIPK3 (human); compound 100.0 µM): 43% | residual activity (IGF1R (human); compound 10.0 µM): 94% | residual activity (IGF1R (human); compound 100.0 µM): 65% | residual activity (IKBKE (human); compound 10.0 µM): 69% | residual activity (IKBKE (human); compound 50.0 µM): 47% | residual activity (IKBKE (human); compound 100.0 µM): 12% | residual activity (IRAK4 (human); compound 10.0 µM): 82% | residual activity (IRAK4 (human); compound 100.0 µM): 34% | residual activity (MAP3K7 TAB1 (human); compound 10.0 µM): 83% | residual activity (MAP3K7 TAB1 (human); compound 100.0 µM): 72% | residual activity (MAPK12 (human); compound 10.0 µM): 95% | residual activity (MAPK12 (human); compound 50.0 µM): 80% | residual activity (MAPK12 (human); compound 100.0 µM): 83% | residual activity (MAPK14 (human); compound 10.0 µM): 97% | residual activity (MAPK14 (human); compound 50.0 µM): 122% | residual activity (MAPK14 (human); compound 100.0 µM): 90% | residual activity (MAPK15 (human); compound 10.0 µM): 81% | residual activity (MAPK15 (human); compound 50.0 µM): 36% | residual activity (MAPK15 (human); compound 100.0 µM): 24% | residual activity (MAPK3 (human); compound 10.0 µM): 83% | residual activity (MAPK3 (human); compound 50.0 µM): 102% | residual activity (MAPK3 (human); compound 100.0 µM): 63% | residual activity (MAPKAPK2 (human); compound 10.0 µM): 77% | residual activity (MAPKAPK2 (human); compound 50.0 µM): 32% | residual activity (MAPKAPK2 (human); compound 100.0 µM): 30% | residual activity (MARK1 (human); compound 10.0 µM): 59% | residual activity (MARK1 (human); compound 100.0 µM): 68%
